From PMC9025336 (Antibiotics, 2022)
Converted amounts (≈) assume the structure as drawn. Peptide text beside a SMILES is read from it. * marks the point of attachment. Orn(α-tetramethylguanidino) = CN(C)C(=N[C@@H](CCCN)C(=O)*)N(C)C

Assays:
[1] = tested on: E. coli Rosetta DE3 pLysS; assay: MIC, liquid broth microdilution; type: cell-based, Escherichia coli; conditions: 25% MHBII medium, 7.5 × 10^6 CFU/mL, 37 °C, 20 ± 2 h, turbidity 600 nm, at least twice in triplicate
Description: (§1) The minimal inhibitory concentrations (MIC) were determined at least twice in triplicate using a liquid broth microdilution assay in sterile 96-well plates and a total volume of 100 μL per well. Aqueous peptide solutions were serially 2-fold diluted in 25% MHBII or 33% TSB medium in a volume of 50 µL. An overnight culture was diluted in 25% MHBII or 33% TSB medium to 1.5 × 10^7 CFU/mL, and an aliquot of 50 μL was added to each well. The final cell count in each well was 7.5 × 10^6 CFU/mL. The plates were incubated at 37 °C for 20 ± 2 h. The turbidity of each well was measured at a wavelength of 600 nm. The MIC was defined as the lowest peptide concentration where the turbidity was identical to medium only.

E. coli BW25113 = type: cell-based, Escherichia coli; conditions: for MIC, BW: BW25113, 2 h
Description: as §1, with “The plates were incubated at 37 °C for 20 ± 2 h.” left out

[2] = tested on: 70S ribosome, ribosomal binding site of Api805; assay: Fluorescence polarization competition with cf-Api805; design: species or system Escherichia coli; conditions: Figure S2, twice in triplicate
Description: Ki was determined for ribosome extracts using cf-labeled and unlabeled peptides in ribosome preparation buffer. Black 384-well plates were prepared as described above. Unlabeled peptides or antibiotics (20 μL, 656 μmol/L) were added and 2-fold serially diluted in 23 wells in ribosome preparation buffer. […] The fluorescence polarization was measured on a […] microplate reader in the top read position (λexc = 485 nm, λem = 535 nm) in triplicate on at least two different days. […] Inhibition constants, Ki, were calculated as described by Mathias and Jung. page 9: 140 140 120 120 100 100 80 80 60 60 40 40 […]. […]. […] 0 0 -20 -20 10 -2 1 10 2 10 4 10 6 10 -2 1 10 2 10 4 10 6 Pept ide Concent r at ion [ nM] Pept ide Concent r at ion [ nM] 140 140 120 120 100 100 80 80 60 60 40 40 20 Chlor […] ol vs. […] -20 -20 10 -2 1 10 2 10 4 10 6 10 -2 1 10 2 10 4 10 6 Ant ibiot ic Concent r at ion [ nM] Antibiotic Concentration [nM] 140 120 100 80 60 40 […] -20 10 -2 1 10 2 10 4 10 6 Ant ibiot ic Concent r at ion [ nM] Figure S2. […] tested as control in competition with Api137 or erythromycin. Experiments were done twice in triplicates. Error bars show the standard deviation of all six replicates. The horizontal dotted line separates positive and negative ranges on the Y-axis. - S9 - (also on this page, place not known: […]

[3] = tested on: in vitro protein translation (GFP expression); assay: In vitro translation assay (GFP fluorescence, PureExpress Delta RF123 kit); type: biochemical, Escherichia coli
Description: Next, we investigated whether Api805 inhibits protein translation in vitro by recording the fluorescence of expressed GFP (Figure 2). As Api137 inhibits protein translation by trapping release factors RF1 and RF2, the fluorescence was measured in the absence of release factor and in the presence of RF1 or RF2. We used a ribosome concentration of 2.4 µmol/L, which is ~[…] than the ribosome concentration in E. coli. […] Furthermore, RF2 of PureExpress® was isolated from an E. coli K-12 strain that carries an A246T substitution, reducing its susceptibility to apidaecin [15, 23]. The inhibition was measured for peptide concentrations of 0.05, 5, and 50 µmol/L relative to the fluorescence obtained without a PrAMP (100%).
GFP was expressed using an NEB PureExpress Delta RF123 kit (New England Biolabs, Ipswich, MA, USA). The sfGFP DNA template coding for a UAA stop codon was amplified from the pY71sfGFP plasmid by PCR using sfGFP primers (Table S3). Release factor 1 (RF1) included in the kit was 50-fold diluted (v/v) in freshly prepared 1x pure system buffer (PSB, 1 mol/L magnesium acetate, 0.5 mol/L K3PO4 (pH 7.3), 1 mol/L potassium glutamate, 1 mol/L NH4Cl, 0.5 mol/L CaCl2, 1 mol/L spermidine, 0.1 mol/L putrescine, 0.1 mol/L DTT). GFP was expressed in a freshly prepared mixture of kit solution A (2 µL), kit solution B (1.5 µL), 50-fold diluted RF1 (0.5 µL), sfGFP template (0.1325 pmol, 35 ng) or water as control (0.25 µL), PSB (0.25 µL), and PrAMP (50, 5, 0.05 or 0 µmol/L) dissolved in water (0.5 µL). The reaction mixture was transferred into a black 384-well plate (flat bottom, Greiner Bio-One GmbH), covered with a lid, and incubated in a microplate reader (Gemini EM, Molecular Devices) at 37 °C for two hours. The fluorescence was recorded every 10 min (λexc = 485 nm, λem = 535 nm).

E. coli BL21 (DE3) = type: cell-based, Escherichia coli; conditions: BL21, 2 h
Description: as §1, with “The plates were incubated at 37 °C for 20 ± 2 h.” left out

[4] = highest peptide concentration (50 µmol/L), relative to fluorescence without PrAMP, 37 °C, 2 h, twice in duplicate

| SMILES | MIC, Ros [1] [µg/mL] | MIC, BW (E. coli BW25113) [µg/mL] | less active against BW25113 than against Rosetta DE3 pLysS (fold, from MIC) (E. coli BW25113; ratio of MIC values, 25% MHBII) | inhibition of the binding of cf-labeled Api805 [2] | inhibition of protein translation in the absence of RF1, in words ([3]; GFP fluorescence, Figure 2) | inhibition of protein translation in the presence of RF1 [3, 4] | MIC, 25% MHBII (E. coli BL21 (DE3)) [µg/mL] | MIC, 33% TSB (E. coli BL21 (DE3)) [µg/mL] | inhibition of protein translation in the absence of RF1 [3, 4] | MIC in the parent E. coli BL21 strain (E. coli BL21 (DE3)) [µg/mL] |
| --- | --- | --- | --- | --- | --- | --- | --- | --- | --- | --- |
| CC[C@H](C)[C@H](NC(=O)[C@H](Cc1ccc(O)cc1)NC(=O)[C@@H](NC(=O)[C@@H]1CCCN1C(=O)[C@H](CCCNC(=N)N)NC(=O)[C@H](CC(N)=O)NC(=O)[C@H](CC(N)=O)NC(=O)[C@H](CCCN)N=C(N(C)C)N(C)C)C(C)C)C(=O)N1CCC[C@H]1C(=O)N[C@@H](CCCNC(=N)N)C(=O)N1CCC[C@H]1C(=O)N[C@@H](CCCNC(=N)N)C(=O)N1CCC[C@H]1C(=O)N1CCC[C@H]1C(=O)N[C@@H](Cc1c[nH]cn1)C(=O)N1CCC[C@H]1C(=O)N[C@@H](CCCNC(=N)N)C(=O)N[C@@H](CC(C)C)C(N)=O [Api88] ({Orn(α-tetramethylguanidino)}-NNRPVYIPRPRPPHPRL-NH2) | 1 (≈ 0.437 µM) | 2 (≈ 0.873 µM) | twofold | – | – | – | – | – | – | – |
| CC[C@H](C)[C@H](NC(=O)[C@H](Cc1ccc(O)cc1)NC(=O)[C@@H](NC(=O)[C@@H]1CCCN1C(=O)[C@H](CCCNC(=N)N)NC(=O)[C@H](CC(N)=O)NC(=O)[C@H](CC(N)=O)NC(=O)[C@H](CCCN)N=C(N(C)C)N(C)C)C(C)C)C(=O)N1CCC[C@H]1C(=O)N[C@@H](CCCNC(=N)N)C(=O)N1CCC[C@H]1C(=O)N[C@@H](CCCNC(=N)N)C(=O)N1CCC[C@H]1C(=O)N1CCC[C@H]1C(=O)N[C@@H](Cc1c[nH]cn1)C(=O)N1CCC[C@H]1C(=O)N[C@@H](CCCNC(=N)N)C(=O)N[C@@H](CC(C)C)C(=O)O [Api137] ({Orn(α-tetramethylguanidino)}-NNRPVYIPRPRPPHPRL-OH) | 2 (≈ 0.873 µM) | 2 (≈ 0.873 µM) | – | none inhibited | only a slight inhibition | ~ 77% | 4 (≈ 1.75 µM) | 2 (≈ 0.873 µM) | – | – |
| CC[C@H](C)[C@H](NC(=O)[C@@H]1CCCN1C(=O)[C@H](CCCNC(=N)N)NC(=O)[C@H](CC(N)=O)NC(=O)[C@H](CC(N)=O)NC(=O)CN)C(=O)N[C@@H](Cc1ccc(O)cc1)C(=O)N[C@H](C(=O)N1CCC[C@H]1C(=O)N[C@@H](CCCNC(=N)N)C(=O)N1CCC[C@H]1C(=O)N[C@@H](CCCNC(=N)N)C(=O)N1CCC[C@H]1C(=O)N1CCC[C@H]1C(=O)N[C@@H](Cc1c[nH]cn1)C(=O)N1CCC[C@H]1C(=O)N[C@@H](CCCNC(=N)N)C(=O)N1CCC[C@H]1C(=O)N[C@H](C(=O)N[C@@H](CCCNC(=N)N)C(=O)N[C@H](C(=O)O)C(C)C)[C@@H](C)CC)[C@@H](C)CC [Api805] (H-GNNRPIYIPRPRPPHPRPIRV-OH; N-terminus assumed) | – | – | – | did not inhibit | – | ~ 52% | 4 (≈ 1.6 µM) | 2 (≈ 0.799 µM) | ~ 38% | 2 to 4 |
